Data set [1] has as its target T1, vitamin D receptor (VDR) (Homo sapiens, UniProt P11473).
T1 sequence (P11473 1-427): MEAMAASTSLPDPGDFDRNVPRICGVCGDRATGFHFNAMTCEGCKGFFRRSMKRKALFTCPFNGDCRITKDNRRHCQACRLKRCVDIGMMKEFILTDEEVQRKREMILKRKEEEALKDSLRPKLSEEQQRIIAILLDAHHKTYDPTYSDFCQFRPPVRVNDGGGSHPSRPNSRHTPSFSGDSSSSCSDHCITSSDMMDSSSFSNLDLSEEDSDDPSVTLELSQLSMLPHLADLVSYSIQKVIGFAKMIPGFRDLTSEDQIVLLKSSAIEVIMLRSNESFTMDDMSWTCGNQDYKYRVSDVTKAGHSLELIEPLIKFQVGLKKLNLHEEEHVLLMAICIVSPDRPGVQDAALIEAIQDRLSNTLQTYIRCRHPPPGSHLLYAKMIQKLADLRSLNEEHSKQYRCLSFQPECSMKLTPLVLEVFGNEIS
The data set can be described thus: Vitamin D-dependent transcriptional activation: growth hormone production in COS-1 cells co-transfected with VDR plasmid and VDRE-GH reporter. The data set is classed as cell-based. As to conditions: for Total GH Production: averages of duplicate determinations. How it is done:
The biological activity in vitro of chemically synthesized 1α,24(S)-(OH)2 D2 and 1α,24(R)-(OH)2 D2 was measured using a vitamin D-dependent transcriptional activation model system in which a vitamin D receptor (VDR)-expressing plasmid pSG5-hVDR1/3and a plasmid p(CT4)^4 TKGH containing a Growth Hormone (GH)-gene, under the control of a vitamin D-responsive element (VDRE) were co-transfected into Green monkey kidney, COS-1 cells. DNA's for these two vectors were supplied by Dr. Mark Haussler, Department of Biochemistry, University of Arizona, Tucson, Ariz.
Transfected cells were incubated with vitamin D metabolites and growth hormone production was measured.

Data set [2] has as its system 1,25-(OH)2 D3 receptor site. As to conditions: Ishizuka et al., Steroids 1981, 1982; cited from earlier work.
Data set [3] has as its target T2, bovine thymus VDR (Bos taurus, UniProt Q28037).
T2 construct: commercially available kit of bovine thymus VDR; purchased Incstar (Stillwater, Minn.); host or cells: bovine thymus
T2 sequence (Q28037 1-426): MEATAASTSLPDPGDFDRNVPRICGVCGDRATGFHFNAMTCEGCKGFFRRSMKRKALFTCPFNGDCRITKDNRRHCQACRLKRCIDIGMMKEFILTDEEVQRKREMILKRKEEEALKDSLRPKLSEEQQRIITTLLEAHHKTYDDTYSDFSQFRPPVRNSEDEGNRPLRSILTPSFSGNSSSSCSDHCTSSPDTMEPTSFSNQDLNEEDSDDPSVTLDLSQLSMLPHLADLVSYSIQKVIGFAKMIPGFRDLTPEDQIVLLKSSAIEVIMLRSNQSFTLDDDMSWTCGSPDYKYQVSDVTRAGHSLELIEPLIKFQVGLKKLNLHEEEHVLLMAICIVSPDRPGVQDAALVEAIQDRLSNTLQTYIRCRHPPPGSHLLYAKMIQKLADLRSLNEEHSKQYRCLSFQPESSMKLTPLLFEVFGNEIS
The data set can be described thus: Radioreceptor assay with bovine thymus VDR (Incstar), displacement of 3H-1α,25-(OH)2 D3. The following applies: bovine thymus VDR radioreceptor assay; read-out: Half-maximal binding (converted). The data set is classed as binding. From the text:
Purified 1α,24(S)-(OH)2 D2 was quantitated by photodiode array spectrophotometry and assayed in the radioreceptor assay.
The purified 1α,24(R)-(OH)2 D2 and 1α,24(S)-(OH)2 D2 epimers were quantitated by ultraviolet spectroscopy. The concentration of 1α,24(R)-(OH)2 D2 required to produce the same displacement of ^3 H-1α,25-(OH)2 D3 tracer from the receptor was 20 to 30 times that required for 1α,24(S)-(OH)2 D2, as shown in FIG. 4.
(In general: Loss of bound radioactivity is the signal in a displacement assay; it reports binding, not function.)

The conditions of data set [4]: human, in vivo; cited from earlier work.
Data set [5] has as its system Hep 3B cells. The data set is described as follows: Metabolism of 1α-OH-D2 in Hep 3B human hepatoma cells at rising substrate concentration. The data set is classed as in vitro ADME. As to conditions: Experiment 2, photodiode array spectrophotometry. The protocol: Substantially pure 1α-(OH)D2 was obtained from Bone Care International, Inc. of Madison, Wis. The 1α-(OH)D2 was cultured for 48 hours with cells derived from a human hepatoma, Hep 3B, in medium devoid of fetal calf serum using known methods in the art.
Lipid extracts of the combined medium and cells were generated by known methods in the art and were subjected to high pressure liquid chromatography (HPLC) on Zorbax-S1L developed with hexane/isopropanol/methanol (91:7:2). The putative 1α,24(?)-(OH)2 D2 metabolite eluted between the parent 1α-(OH)D2 and standard 1α,25-(OH)2 D2 (also obtained from Bone Care International, Inc. of Madison, Wis.). (As used herein, the term "1α,24(?)-(OH)2 D2 " is meant to indicate that the epimeric form has not been identified.) The 1α,24(?)-(OH)2 D2 was further purified by this HPLC system before the metabolite's identification was undertaken using mass spectrometry analysis.
Hep 3B cells were incubated with 1α-OH-D2, as described above, at final concentrations of 1, 10, or 100 nM (Experiment 1), and 1 or 10 μM (Experiment 2) and 1α,24(S)-(OH)2 D2 was extracted and purified. The 1α,24(S)-(OH)2 D2 and 1α,25-(OH)2 D2 metabolites were quantitated by recovered radiolabel (Experiment 1) or by photodiode array spectrophotometry (Experiment 2).

Data set [6] in a line: Blood metabolite levels in osteoporotic women given 1α-OH-D2. The data set is classed as in vivo, human. As to conditions: one day after a single 2 μg dose. The protocol: An increase in the production of 1α,24(S)-(OH)2 D2 relative to 1α,25-(OH)2 D2 has also been observed by the present inventors in human females who received 1α-OH-D2 as part of an investigation of that drug for the treatment of osteoporosis. Following either a single dose of 2 μg of 1α-OH-D2 or daily doses of 8 μg/day for one week, blood was collected and analyzed for the metabolites 1α,24(S)-(OH)2 D2 and 1α,25-(OH)2 D2. Lipid was extracted from the blood, and the metabolites were purified by HPLC using standard methods and quantified with the radioreceptor assay produced by Incstar (Stillwater, Minn.). One day after a single 2 μg dose, the level of 1α,24(S)-(OH)2 D2 was undetectable with the 1α,25-(OH)2 D2 level being approximately 11 pg/ml. In contrast, one day following the last dose of 8 μg, the level of 1α,24(S)-(OH)2 D2 averaged 9 pg/ml with the 1α,25-(OH)2 D2 level averaging 30 pg/ml.

The format of data set [7] is in vivo, rat. The protocol: Vitamin D2 or 24-OH-D2 was administered (either oral or intraperitoneal supplementation) to vitamin D-deficient rats. Lipid extracts of the plasma were prepared and the metabolites purified by the method of Horst et al. (Horst, R. L., Koszewski, N. J. and Reinhardt, T. A., Biochem., 29:578-82 (1990)) described below for synthesyzing standard biological 1α,24-(OH)2 D2.
Standard biological 1α,24-(OH)2 D2 was synthesized in vitro from 24-OH-D2 by incubating 10 μg of 24-OH-D2 in flask containing 5 ml of 20% kidney homogenates made from vitamin D-deficient chicks. The product of this reaction was isolated by HPLC and identified by mass spectrometry.

Setting [8] is: inducer molar concentration 10^-7.
Setting [9] is: inducer molar concentration 10^-8.
Where [10] appears, read: inducer molar concentration 10^-9.
[11] abbreviates: inducer molar concentration 10^-5.
Where [12] appears, read: inducer molar concentration 10^-6.

Read-outs that look alike come from different tables or passages of the source.

Regarding `C=C1/C(=C\C=C2/CCC[C@]3(C)[C@@H]([C@H](C)/C=C/[C@](C)(O)C(C)C)CC[C@@H]23)C[C@@H](O)C[C@@H]1O` [1α,24(R)-(OH)2 D2, 1α,24(R)-dihydroxy vitamin D2], the “Net vitamin D-inducible GH-production” value in data set [1] (setting [8]) was found to be 1256 ng/mL; in data set [1] (setting [9]) it was 1056 ng/mL; in data set [1] (setting [10]), 36 ng/mL. The “Total GH Production” value in data set [1] (setting [8]) came out at 1300 ng/mL; in data set [1] (setting [9]), 1100 ng/mL; in data set [1] (setting [10]), 80 ng/mL.
With `C=C1/C(=C\C=C2/CCC[C@]3(C)[C@@H]([C@H](C)CC[C@@H](O)C(C)C)CC[C@@H]23)C[C@@H](O)C[C@@H]1O` [1α,24(R)-(OH)2 D3, 1α,24(R)-dihydroxyvitamin D3], the “Binding of the 1,25-(OH)2 D3 receptor site relative to 1,25-(OH)2 D3” value in data set [2] is “more tightly”.
Turning to `C=C1/C(=C\C=C2/CCC[C@]3(C)[C@@H]([C@H](C)/C=C/[C@H](C)C(C)(C)O)CC[C@@H]23)C[C@@H](O)C[C@@H]1O` [1α,25-(OH)2D2, 1α,25-dihydroxy vitamin D2, reference compound], the IC50 in data set [3] was 0.187 nM.
Consider `C=C1/C(=C\C=C2/CCC[C@]3(C)[C@@H]([C@H](C)CCCC(C)C)CC[C@@H]23)C[C@@H](O)C[C@@H]1O` [1α-(OH)D3, 1α-hydroxy vitamin D3], for which the “Safety of dosage levels of 2.0 μg/day or greater” value in data set [4] is “not safely obtained”.
As to `C=C1/C(=C\C=C2/CCC[C@]3(C)[C@@H]([C@H](C)/C=C/[C@H](C)C(C)C)CC[C@@H]23)C[C@@H](O)C[C@@H]1O` [1α-OH-D2, 1α-hydroxy vitamin D2], the “Rate of Production of 1α,24(S)-(OH)2 D2” value in data set [5] (substrate concentration 1 μM) amounted to 4.9 pmol per 10^6 cells/day. In data set [5] (substrate concentration 10 μM), the “Rate of Production of 1α,24(S)-(OH)2 D2” value is listed as 59 pmol per 10^6 cells/day and the “Rate of Production of 1α,25-(OH)2 D2” value turned out to be 7.4 pmol per 10^6 cells/day. The “Blood level of metabolite 1α,24(S)-(OH)2 D2” value in data set [6] is “undetectable”.
With `C=C1CC[C@H](O)C/C1=C/C=C1\CCC[C@]2(C)[C@@H]([C@H](C)/C=C/C(C)(O)C(C)C)CC[C@@H]12` (stereo partly shown) [24-OH-D2, 24-hydroxyvitamin D2], the “Metabolite isolated from plasma lipid extracts” value in data set [7] (rat, in vivo) is on record as “co-migrated on HPLC with the standard 1α,24-(OH)2 D2”.
Consider `C=C1CC[C@H](O)C/C1=C/C=C1\CCC[C@]2(C)[C@@H]([C@H](C)CCCC(C)(C)O)CC[C@@H]12` [25-OH-D3, 25-hydroxy vitamin D3, reference compound], for which the “Net vitamin D-inducible GH-production” value in data set [1] (setting [11]) came to 731 ng/mL; in data set [1] (setting [12]), 1056 ng/mL; in data set [1] (setting [8]), 201 ng/mL. For the same molecule, the “Total GH Production” value is 775 ng/mL in data set [1] (setting [11]), 1100 ng/mL in data set [1] (setting [12]) and 245 ng/mL in data set [1] (setting [8]).
Turning to `C=C1CC[C@H](O)C/C1=C/C=C1\CCC[C@]2(C)[C@@H]([C@H](C)/C=C/[C@H](C)C(C)C)CC[C@@H]12` [vitamin D2, Vitamin D2], the “Metabolite isolated from plasma lipid extracts” value in data set [7] (vitamin D-deficient rats, HPLC against standard biological 1α,24-(OH)2 D2) is “co-migrated on HPLC with the standard 1α,24-(OH)2 D2”.
Regarding `C=C1CC[C@H](O)C/C1=C/C=C1\CCC[C@]2(C)[C@@H]([C@H](C)CCCC(C)C)CC[C@@H]12` [vitamin D3], the 24-OH-D3 in plasma result in data set [7] (comparable vitamin D-deficient rats) is on record as “no detectable”.

(Values after patent US5786348A, “Methods for preparation and use of 1α,24(S)-dihydroxy vitamin D2” (priority 1995, dated 1998).)
